Reference: patent US20080112968A1, “NICOTINAMIDE COMPOSITIONS FOR TREATMENT OF SKIN DISEASES AND DISORDERS” (Dermena, priority 2006, published 2008)

Experiments:
[1] = Binding of pyridinium salts to sepharose immobilized heparin (spectrophotometric degree of binding); conditions: water solution incubated 5 minutes with sepharose immobilized heparin 25 mg/mL
Description: Spectrophotometric methodologies were applied to estimate a degree of binding (DB) of the investigated compounds with heparin. This method is based on the absorption measurements of water solution of the investigated compound before and after a contact with heparin. The concentration was adjusted such that the absorbance in the region near the absorption maximum was around 1. The absorption spectra was collected for these prepared solutions. The same solutions of the investigated pyridinium salts were also incubated for 5 minutes with sepharose immobilized heparin (Heparin Sepharose CL-6B, Amersham Biosciences AB, Sweden) added in amount of 25 mg/mL. The suspensions of immobilized heparin with the analyzed compounds were then placed into Eppendorf microtubes and centrifuged at 13000 g for 4 minutes. The resulting clear solution over the sediment was introduced into a cuvette, and the absorption spectrum was measured. The degree of binding was estimated based on comparison of integrated area under the absorption curve for the solutions incubated and non-contacted with heparin.
DB was calculated according to the equation (1):
where: DB=degree of binding,
IA=integrated area under absorption curve for sample without contact with immobilized heparin,
IAHEP=integrated area under absorption curve for sample incubated with immobilized heparin.

[2] = Solubility in water; type: physicochemical

SMILES	Degree of binding, [%] [1]	solubility [2] [mg/mL]
C[n+]1cccc(C(N)=O)c1 [Compound 1, 1-Methylnicotinamide]	>45%	> 600
CNC(=O)c1ccc[n+](C)c1 [Compound 2, 1,N′-Dimethylnicotinamide]	20-45%	
CCN(CC)C(=O)c1ccc[n+](C)c1 [Compound 3, 1-Methyl-N′,N′-diethylnicotin-amide]	20-45%	
C[n+]1cccc(C(=O)NCO)c1 [Compound 4, 1-Methyl-N′-(hydroxymethyl)-nicotinamide]	20-45%	
CC(=O)c1ccc[n+](C)c1 [Compound 5, 1-Methyl-3-acetylpyridine]	20-45%	
CCC[n+]1cccc(C(N)=O)c1 [Compound 6, 1-Propylnicotinamide]	20-45%	
C[n+]1cccc(C(=O)[O-])c1 [Compound 7, Trigonelline]	<20%	
NC(=O)c1cccnc1 [Compound 8, Nicotinamide]	<20%	
